Measurements reported in PubChem BioAssay (NCI).
Values joined by “and” are separate entries in the source; they are usually repeats but may differ in a detail not shown here. Identical values can stand only once.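 In this assay, cells in 96-well plates receive the compound at five concentrations for 48 hours. Endpoints are linearly interpolated between the surrounding concentrations. The concentration for 50% growth inhibition is given as GI50. TGI: total growth inhibition.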

How the values were obtained:
Test in all cases: NCI-60 cell line screen, 48 h
786-0 renal = test system: 786-0 renal
ACHN renal = test system: ACHN renal
CAKI-1 renal = test system: CAKI-1 renal
CCRF-CEM leukemia = test system: CCRF-CEM leukemia
NCI-H23 lung = test system: NCI-H23 lung
PC-3 prostate = test system: PC-3 prostate
SK-MEL-28 melanoma = test system: SK-MEL-28 melanoma
SNB-75 CNS = test system: SNB-75 CNS
T-47D breast = test system: T-47D breast
U251 CNS = test system: U251 CNS

Structure (SMILES) | GI50 (786-0 renal) | TGI (786-0 renal) | GI50 (ACHN renal) | TGI (ACHN renal) | GI50 (CAKI-1 renal) | TGI (CAKI-1 renal) | GI50 (CCRF-CEM leukemia) | TGI (CCRF-CEM leukemia) | GI50 (NCI-H23 lung) | TGI (NCI-H23 lung) | GI50 (PC-3 prostate) | TGI (PC-3 prostate) | GI50 (SK-MEL-28 melanoma) | TGI (SK-MEL-28 melanoma) | GI50 (SNB-75 CNS) | TGI (SNB-75 CNS) | GI50 (T-47D breast) | TGI (T-47D breast) | GI50 (U251 CNS) | TGI (U251 CNS)
NC(=O)c1c(NC(=O)c2cccs2)sc2c1CCC(=O)C2 | 4.34 µM | > 100 µM | 2.16 µM | 8.88 µM | 2.65 µM | > 100 µM | 0.458 µM | > 100 µM | 1.83 µM | 7.34 µM | 0.627 µM | > 100 µM | 4.52 µM | > 100 µM | 1.7 µM | 9.05 µM | 2.05 µM | > 100 µM | 2.28 µM | > 100 µM
COc1ccc(OC)c(Nc2nc3nonc3nc2Nc2cccc(Br)c2)c1 | 1.71 µM | 13.8 µM | 0.927 µM | 13.3 µM | 0.811 µM | 15.2 µM | 0.608 µM | 17.2 µM | 0.41 µM | 5.49 µM | 0.454 µM | > 100 µM | 0.779 µM | > 100 µM | 1.25 µM | 8.12 µM | 0.285 µM | 2.17 µM | 0.577 µM | 11.7 µM
CC[C@@H](C)/C=C(C)/C=C/C(=O)c1c(O)c(-c2ccc(OC(=O)[C@@]34CC[C@@](C)(C(=O)O3)C4(C)C)cc2)cn(O)c1=O | 1.55 µM | 4.98 µM | 1.32 µM | 11.6 µM | 1.6 µM | 11.9 µM | 1.12 µM | > 50 µM | 2.41 µM | > 50 µM | 20.4 µM | > 50 µM | 2.51 µM | > 50 µM | 4.34 µM | > 50 µM | 1.94 µM | > 50 µM | 1.64 µM | > 50 µM
C/C(=N\NC(=O)c1ccncc1)c1sc(-n2nc(-c3ccccc3)cc2-c2ccccc2)nc1C |  | > 31.6 µM |  | > 31.6 µM |  | > 100 µM |  | > 31.6 µM |  | > 31.6 µM |  | > 31.6 µM |  | > 31.6 µM |  | > 100 µM |  | > 31.6 µM |  | > 31.6 µM
COc1cccc2c1C(=O)c1c(O)c3c(c(O)c1C2=O)C[C@@](O)(/C(CO)=N/NC(=O)CCCCCN1C(=O)C=CC1=O)C[C@@H]3O[C@H]1C[C@H](N)[C@H](O)[C@H](C)O1 | 0.386 µM | 9.21 µM | 0.717 µM | > 51.5 µM | 3.6 µM | 56.4 µM | 0.334 µM | > 100 µM | 0.927 µM | 5.98 µM | 1.64 µM | 19.5 µM | 1.61 µM | 5.67 µM | 0.368 µM | 2.99 µM | 0.49 µM | 8.41 µM | 0.325 µM | 15.8 µM
CCN1CCN(c2nc(C)cc(NCc3cc(Nc4ccnc5cc(Cl)ccc45)ccc3F)n2)CC1 | 1.54 µM | 3.13 µM | 2.47 µM | 7.4 µM | 1.83 µM | 4.72 µM | 2.06 µM | 15.2 µM | 2.62 µM | 13 µM | 1.72 µM | 8.66 µM | 1.7 µM | 3.37 µM | 1.37 µM | 3.52 µM | 1.73 µM | 5.07 µM | 1.95 µM | 5.44 µM
C[C@]12CC[C@H](O[C@@H]3O[C@H](CO[C@@H]4O[C@H](CO)[C@@H](O)[C@H](O)[C@H]4O)[C@@H](O)[C@H](O)[C@H]3O)C[C@@H]1CC[C@@H]1[C@@H]2CC[C@]2(C)[C@@H](C3=CC(=O)OC3)CC[C@]12O |  | > 100 µM |  | > 100 µM |  | > 58.9 µM |  | > 100 µM |  | 28.1 µM |  | > 100 µM |  | > 100 µM |  | > 84.7 µM |  | > 95.7 µM |  | > 100 µM
Cc1cc(O)ccc1C1=NN(c2ccc(S(N)(=O)=O)cc2)C(=O)CC1 | 18.9 µM and 43.6 µM | 50 µM and > 100 µM | 19.3 µM and 38.3 µM | 50 µM and > 100 µM | 4.08 µM and 4.93 µM | 50 µM and 82.1 µM | 9.88 µM and 10.5 µM | 50 µM and > 100 µM | 14.5 µM and 22.5 µM | 50 µM and > 100 µM | 23.5 µM and 52.1 µM | 50 µM and > 100 µM | 25.7 µM and > 100 µM | 50 µM and > 100 µM | 2.95 µM and 16.3 µM | 21.5 µM and 82.9 µM | 3.23 µM and 13.1 µM | 50 µM and > 100 µM | 6.97 µM and 16.1 µM | 50 µM and 67 µM
CC(=Nc1ccc(N(C)C)cc1)c1ccccc1 |  | 36.2 µM |  | 77.1 µM |  | 34 µM |  | 92.6 µM |  | > 100 µM |  | 99.4 µM |  | > 100 µM |  | 77.4 µM |  | 55.4 µM |  | > 100 µM
CCCCC(=O)N(c1ccc(Nc2c3ccccc3nc3cc([N+](=O)[O-])ccc23)cc1)S(C)(=O)=O | 4.3 µM | > 100 µM | 3.85 µM | > 88.7 µM | 7.03 µM | > 51.9 µM | 3.65 µM | > 100 µM | 12.6 µM | 42.5 µM | 3.64 µM | 54.2 µM | 14.5 µM | 36.6 µM | 4.7 µM | 64.8 µM | 0.588 µM | 6.73 µM | 5.32 µM | > 59.1 µM
COC(=O)[C@H](Cc1cn(C)cn1)NC(=O)[C@H](CC(=O)OCc1ccccc1)NC(=O)Nc1cc(C(F)(F)F)cc(C(F)(F)F)c1 | 10.9 µM | 24.2 µM | 10.4 µM | 24 µM | 14.1 µM | 27.8 µM | 9.81 µM | 24.7 µM | 15.8 µM | 30.7 µM | 12.7 µM | 25.7 µM | 9.51 µM | 21.6 µM | 11.8 µM | 24.1 µM | 7.38 µM and 4.83 µM | 18.6 µM | 2.61 µM | 7.85 µM
CCOc1cc(-c2nncn2C)ccc1Nc1ncc2cc(C)nc(NCC(C)(C)C)c2n1 | > 100 µM | > 100 µM |  | > 100 µM | > 26.6 µM | > 100 µM | 0.321 µM | > 100 µM | > 89.7 µM | > 100 µM |  | > 100 µM | > 100 µM | > 100 µM | > 26 µM | > 100 µM | 2.83 µM | > 100 µM | > 100 µM | > 100 µM
COC(=O)c1c[nH]c2cc(OC(C)C)c(OC(C)C)cc2c1=O | > 100 µM | > 100 µM | > 100 µM | > 100 µM | > 100 µM | > 100 µM | > 100 µM | > 100 µM | > 100 µM | > 100 µM | > 100 µM | > 100 µM | > 100 µM | > 100 µM | > 100 µM | > 100 µM | > 100 µM | > 100 µM | > 100 µM | > 100 µM
